pKd: −log10 of the molar value. Where two headings read alike, the source gives them in different places.
Key:
plasma [1] = assay: Plasma coagulation assay: prothrombin time; assay type: biochemical; conditions: thromboplastin (Dade)
Description: (§1) The numerical values in the table are the concentrations of the test compounds (ng/ml) required to prolong coagulation by 2-fold in the three tests. The thrombin time evaluation was carried out in plasma and separately determined in a buffer system at […].
(§2) The data presented in Table 2 were obtained using a CoaScreener instrument from Tecan, Inc. in the assay protocols listed below. Prothrombin Time: 50 µl plasma 50 µl saline 7 µl test solution 50 µl thromboplastin (Dade) Thrombin Time: 50 µl plasma 50 µl saline 7 µl test compound 50 µl bovine thrombin (2 NIH unit/ml) In the Thrombin Time determined in pH 7.4 buffer fibrinogen was used instead of plasma. APTT: 50 µl plasma 50 µl Actin (Dade) 7 µl test solution 50 µl CaCl2 (0.01M).

bovine thrombin [2] = biological target: T1, bovine thrombin (Bos taurus, UniProt P00735); assay: Plasma coagulation assay: thrombin time; assay type: biochemical; conditions: plasma, bovine thrombin (2 NIH unit/ml)
T1 construct: 50 µl bovine thrombin (2 NIH unit/ml)
Description: as §1, §2

bovine thrombin [3] = biological target: T1, bovine thrombin; assay: Thrombin time in buffer (fibrinogen instead of plasma); assay type: biochemical; conditions: buffer pH 7.5, fibrinogen instead of plasma
Description: as §1, §2

[4] = test system: Arterial Thrombosis in the Rat; assay: FeCl3-induced arterial thrombosis in the carotid artery of the rat; assay type: in vivo; conditions: infusion from 15 min before to 60 min after FeCl3 application, NA = Not active at 4 mg/kg/h or at 7 mg/kg/h, the highest doses tested
Description: The antithrombotic activity of representative compounds of the invention was determined in in vivo tests carried out in the rat. The test employed induced arterial thrombosis in the carotid artery of the rat and measured the infusion dose of test compound required to maintain blood flow for fifty minutes past the time of occlusion. The test was performed as follows.
Arterial thrombosis was induced in the rat by injury of the carotid artery. Topical application of a ferric chloride solution was used to injure the vessel. […] Animals were laid on a water blanket in which the circulated water was maintained at 37° C. The carotid artery was approached through a midline cervical incision. Careful blunt dissection was used to expose and isolate the vessel from the carotid sheath. A silk suture was pulled underneath the artery to lift the vessel to provide clearance to insert a thermocouple underneath it. […] The discs were cut to equal size using sharpened stainless steel tubing (3 mm i.d.) chucked in a drill press. A saturated disc was placed on each carotid artery above the thermocouple. The time between FeCl3 application and the time at which temperature decreased abruptly was recorded as time to occlusion (TTO) of the vessel. The average time required for both vessels to occlude was used to represent TTO for each animal.
Test compounds were dissolved in isotonic saline. A syringe pump was used to infuse drug solutions starting 15 min before FeCl3 application and continuing for 60 min after FeCl3 application. Dose-response curves were plotted to determine the relationship between the log10 of the infused doses and the TTO of the injured arteries.
The association between vessel occlusion and the abrupt temperature decrease was established by simultaneously recording the temperature and blood flow on the same recorder. A pulsed Doppler flow probe was placed around the carotid artery proximal to the thermocouple. […] Results were reported as percent change from initial baseline values (6 min before occlusion). The time at which vessel temperature decreased rapidly was arbitrarily established as zero and pre- and post-occlusion temperature and flow values were referenced from that point.

plasma [5] = assay: Plasma coagulation assay: activated partial thromboplastin time (APTT); assay type: biochemical; conditions: Actin (Dade), CaCl2
Description: as §1, §2

thrombin = biological target: T2, thrombin (Bos taurus, UniProt P00735); assay: Inhibition of thrombin amidase activity (chromogenic substrate N-benzoyl-D-phenylalanyl-L-valyl-L-arginyl-p-nitroanilide); assay type: biochemical
T2 construct: purchased
Description: The data in the table were obtained in an assay in which thrombin hydrolyzes the chromogenic substrate, N-benzoyl-D-phenylalanyl-L-valyl-L-arginyl-p-nitroanilide.
The assay was carried out in 50 µl buffer (0.03M Tris, 0.15M NaCl, pH 7.4) with 25 µl of thrombin solution (0.21 mg/ml of thrombostat powder in 0.06 M Tris, 0.3M NaCl, pH 7.4) and 150 µl of an aqueous solution of the chromogenic substrate at a concentration of 0.25 mg/ml. Solutions of test compound (25 µl) at various concentrations were added. […] Standard curves were constructed by plotting free thrombin concentration against hydrolysis rate. […] The amount of free inhibitor in each assay was calculated by subtracting the number of moles of bound thrombin from the number of moles of added inhibitor (test compound).
The Kass value is the hypothetical equilibrium constant for the reaction between thrombin and the test compouhnd (I). Thrombin + I ⇄ Thrombin - I [formula] Kass =([Thrombin I])/([ (Thrombin) x (I) ]) [formula]
Kass was calculated for a range of concentrations of test compounds and the mean value is reported in units of liter per mole.

pKd (thrombin)	SMILES	Prothrombin Time: concentration of test compounds required to prolong coagulation by 2-fold (plasma [1]) [ng/mL]	Thrombin Time: concentration of test compounds required to prolong coagulation by 2-fold (bovine thrombin [2]) [ng/mL]	Buffer (pH 7.5) Thrombin Time: concentration of test compounds required to prolong coagulation by 2-fold (bovine thrombin [3]) [ng/ml]	ED50 (infusion dose required to maintain blood flow for 50 min) [4] [mg/kg/h]	APTT: concentration of test compounds required to prolong coagulation by 2-fold (plasma [5]) [ng/mL]	Kd (thrombin; apparent equilibrium (association) constant, mean over a range of concentrations, pH 7.4, acetate salts unless indicated otherwise, read-out: Thrombin Amidase Kass (converted)) [nM]
–	CC(C)(C)OC(=O)NC(C(=O)N1CCC[C@H]1C(=O)N[C@H](C=O)CCCNC(=N)N)c1cccc2ccccc12 (mixture of isomers) [N-Boc-DL-1-naphthylglycyl]	1136	320	112	5.5	2272	55.2
7.72	CC(C)(C)OC(=O)N[C@@H](C(=O)N1CCC[C@H]1C(=O)N[C@H](C=O)CCCNC(=N)N)c1cccc2ccccc12 [N-Boc-D-1-naphthylglycyl, N-Boc-D-1-naphthylglycyl-Pro-Arg-H diacetate]	1225	230	105	6.4	3100	–

From patent EP0837071A1, “Tripeptide antithrombotic agents” (ELI LILLY AND COMPANY, priority 1990, dated 1992)
